Measured values from patent US20220395553A1, “CXCR4 ANTAGONIST PEPTIDES” (COHBAR, INC., priority 2019, published 2022).
Square brackets hold non-standard residues; d marks the D form. Peptide text beside a SMILES is read from it.

Experiments:
human CXCR4 = human CXCR4 (Homo sapiens, UniProt P61073); assay: IC50 for inhibition of CXCR4 activation, β-Arrestin recruitment (Example 22); format: cell-based; parameters: host or cells: C2C12 (mouse myoblast) CXCR4 β-Arrestin PathHunter cell line
Procedure, shortened: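 C2C12 cells co-expressing ProLink-tagged human CXCR4 and Enzyme Acceptor-tagged β-arrestin (PathHunter). Peptides tested in 10-point, 3-fold dilutions from 1 μM (1 μM–0.05 nM). Recruitment read by chemiluminescent enzyme-fragment complementation after 90 min incubation.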

Rat H-4-II-E Cells [1] = assay: Cell proliferation, BrdU incorporation; format: cell-based; details: peptide 10 μM, 18-20 hours, relative to 0.1% DMSO control
Protocol: The effect of the peptides on cell proliferation can be assessed using an assay of BrdU incorporation in cultured cells. Peptides were initially prepared as 10 mM stock in DMSO and tested at a final concentration of 10 μM (0.1% DMSO). BrdU Cell Proliferation Assay kit was purchased from Cell Signaling Technology. H-4-II-E rat liver hepatoma cell line was purchased from American Type Culture Collection (Manassas, Va.). H-4-II-E cells were grown in DMEM supplemented with 10% FBS with 100 IU/ml penicillin and 100 μg/ml streptomycin. Cultures were maintained at 37° C. in a humidified atmosphere of 5% CO2/95% air. H-4-II-E cells were seeded at 20,000 cells per well on 96-well plates. The next day cells were incubated with test peptides at 10 μM in 0.1% DMSO and maintained at 37° C. in a humidified atmosphere of 5% CO2/95% air for 18-20 hours. Cell proliferation was determined using a BrdU Cell Proliferation Assay kit (Cell Signaling Technology) according to the manufacturer's instructions. Absorption for each sample well on the plate was measured using a Cytation 3 plate reader at 450 nm (BioTek, Winooski, Vt.). Activity was calculated relative to 0.1% DMSO untreated control.

Rat H-4-II-E Cells [2] = assay: TBHP-induced reactive oxygen species (DCFDA); format: cell-based; details: peptide 10 μM 18-20 hours, then TBHP 100 μM 1 hour; relative to TBHP control
Protocol: The protective or synergistic effect of the peptides on cellular levels of reactive oxygen species (ROS) induced by oxidative stress can be assessed using an assay of ROS in cultured cells exposed to a suitable oxidative stress. Peptides were initially prepared as 10 mM stock in DMSO and tested at a final concentration of 10 μM (0.1% DMSO). […] TBHP was used at final concentration of […]. Sulforaphane was used at a final concentration of 10 uM as a protective antioxidant control against TBHP induced ROS production. DCFDA Cellular ROS Detection Assay kit was purchased from […]. H-4-II-E rat liver hepatoma cell line was purchased from American Type Culture Collection (Manassas, Va.). H-4-II-E cells were grown in DMEM supplemented with 10% FBS with 100 IU/ml penicillin and 100 μg/ml streptomycin. Cultures were maintained at 37° C. in a humidified atmosphere of 5% CO2/95% air. H-4-II-E cells were seeded at 15,000-20,000 cells per well on 96-well plates. The next day cells were incubated with test peptides at 10 μM in 0.1% DMSO or sulforaphane at 10 uM and maintained at 37° C. in a humidified atmosphere of 5% CO2/95% air for 18-20 hours. After 18-20 hours of incubation the cells were loaded with DCFDA for 45 min. TBHP at 100 μM was then added to the appropriate wells for 1 hour. ROS activity was determined using a DCFDA Cellular ROS Detection Assay kit (Abcam) according to the manufacturer's instructions. Fluorescence in each sample well on the plate was measured using a Cytation 3 plate reader at Ex/Em=485/535 nm (BioTek, Winooski, Vt.). Activity was calculated relative to TBHP control. […] Activity was calculated relative to THBP treated control.

[3] = tested on: SH-SY5Y Neuroblastoma Cells; assay: ATP levels in cells exposed to staurosporine; format: cell-based, human; details: peptide 10 μM plus staurosporine, 18-20 hours; <100% cytoprotective, >100% synergistic
Protocol: Peptides were initially prepared as 10 mM stock in DMSO and tested at a final concentration of 10 μM (0.1% DMSO).
[…] CellTiter-Glo® Assay kit was purchased from Promega. SH-SY5Y human neuroblastoma cell line was purchased from American Type Culture Collection (Manassas, Va.) and licensed from Memorial Sloan-Kettering Cancer Center (New York, N.Y.). SH-SY5Y cells were grown in DMEM/F12 medium supplemented with 10% FBS with 100 IU/ml penicillin and 100 μg/ml streptomycin. Cultures were maintained at 37° C. in a humidified atmosphere of 5% CO2/95% air. SH-SY5Y cells were seeded at 30,000 cells per well on 96-well plates. […] ATP levels were determined using a CellTiter-Glo Assay kit (Promega) according to the manufacturer's instructions. Luminescence for each sample well on the plate was measured using a Cytation 3 plate reader (BioTek, Winooski, Vt.). […] A value less than 100% is indicative of a cytoprotective effect, while a value greater than 100% is indicative of a synergistic effect on viability.

human CXCR4, sequence (P61073 whole entry, the tested form may be a part): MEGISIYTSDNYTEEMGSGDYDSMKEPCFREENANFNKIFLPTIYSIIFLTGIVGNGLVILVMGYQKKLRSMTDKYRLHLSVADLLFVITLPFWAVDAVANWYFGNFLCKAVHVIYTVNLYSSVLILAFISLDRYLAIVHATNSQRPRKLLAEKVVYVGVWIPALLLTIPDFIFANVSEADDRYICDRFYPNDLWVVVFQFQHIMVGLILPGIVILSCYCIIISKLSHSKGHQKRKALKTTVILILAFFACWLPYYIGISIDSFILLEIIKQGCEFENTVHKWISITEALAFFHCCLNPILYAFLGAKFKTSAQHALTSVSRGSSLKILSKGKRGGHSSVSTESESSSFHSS

Row | IC50 (human CXCR4) [nM] | Structure (SMILES) | BrdU Incorporation, Percent of Control (Rat H-4-II-E Cells [1]) [%] | TBHP-Induced ROS, Percent of Control (Rat H-4-II-E Cells [2]) [%] | Percent of ATP Reduction Induced by Control [3] [%]
1 | 4 | CC(C)C[C@H](NC(=O)[C@H](CO)NC(=O)[C@H](CO)NC(=O)[C@H](CCCNC(=N)N)NC(=O)[C@@H](NC(=O)[C@H](CO)NC(=O)[C@H](Cc1c[nH]cn1)NC(=O)[C@H](Cc1c[nH]cn1)NC(=O)[C@H](Cc1ccc(O)cc1)NC(=O)[C@H](CCCNC(=N)N)NC(=O)[C@H](CCC(=O)O)NC(=O)[C@@H](N)CC(C)C)C(C)C)C(=O)N[C@@H](CCCNC(=N)N)C(=O)N1CCC[C@H]1C(=O)N[C@@H](Cc1ccc(O)cc1)C(=O)N[C@H](C(=O)N[C@@H](CCCCN)C(=O)O)[C@@H](C)O [compound 4] (H-LERYHHSVRSSLRPYTK-OH; N-terminus and C-terminus assumed) | 114.4 | 95.8 | 77.1
2 | 5 | CC(C)C[C@H](NC(=O)[C@H](CO)NC(=O)[C@H](CO)NC(=O)[C@H](CCCNC(=N)N)NC(=O)[C@@H](NC(=O)[C@H](CO)NC(=O)[C@H](Cc1c[nH]cn1)NC(=O)[C@H](Cc1c[nH]cn1)NC(=O)[C@H](Cc1ccc(O)cc1)NC(=O)[C@H](CCCNC(=N)N)NC(=O)[C@H](CCCNC(=N)N)NC(=O)[C@@H](N)CC(C)C)C(C)C)C(=O)N[C@@H](CCCNC(=N)N)C(=O)N1CCC[C@H]1C(=O)N[C@@H](Cc1ccc(O)cc1)C(=O)N[C@H](C(=O)N[C@@H](CCCCN)C(=O)O)[C@@H](C)O [compound 3] (H-LRRYHHSVRSSLRPYTK-OH; N-terminus and C-terminus assumed) | 130.3 | 95.5 | 84.9
3 |  | CC(C)C[C@H](NC(=O)[C@H](CO)NC(=O)[C@H](CO)NC(=O)[C@H](CCCNC(=N)N)NC(=O)[C@@H](C)NC(=O)[C@H](CO)NC(=O)[C@H](Cc1c[nH]cn1)NC(=O)[C@H](Cc1c[nH]cn1)NC(=O)[C@H](Cc1ccc(O)cc1)NC(=O)[C@H](CCCNC(=N)N)NC(=O)[C@H](CCC(=O)O)NC(=O)[C@@H](N)CC(C)C)C(=O)N[C@@H](CCCNC(=N)N)C(=O)N1CCC[C@H]1C(=O)N[C@@H](Cc1ccc(O)cc1)C(=O)N[C@H](C(=O)O)[C@@H](C)O [compound 5] (H-LERYHHS[dA]RSSLRPYT-OH; N-terminus and C-terminus assumed) | 131.1 | 99.2 | 80.0
4 | 11 | CSCC[C@H](N)C(=O)N[C@@H](CC(C)C)C(=O)N[C@@H](CCCNC(=N)N)C(=O)N[C@@H](CCCNC(=N)N)C(=O)N[C@@H](Cc1ccc(O)cc1)C(=O)N[C@@H](Cc1c[nH]cn1)C(=O)N[C@@H](Cc1c[nH]cn1)C(=O)N[C@@H](CO)C(=O)N[C@H](C(=O)N[C@@H](CCCNC(=N)N)C(=O)N[C@@H](CO)C(=O)N[C@@H](CO)C(=O)N[C@@H](CC(C)C)C(=O)N[C@@H](CCCNC(=N)N)C(=O)N1CCC[C@H]1C(=O)N[C@@H](Cc1ccc(O)cc1)C(=O)N[C@H](C(=O)N[C@@H](CCCCN)C(=O)O)[C@@H](C)O)C(C)C [compound 2] (H-MLRRYHHSVRSSLRPYTK-OH; N-terminus and C-terminus assumed) | 123.6 | 90.9 | 84.5
